Data as given in article PMC7918612, “Novel Inhibitors of Nicotinamide-N-Methyltransferase for the Treatment of Metabolic Disorders” (Molecules, 2021).
Changes are numbered by the printed parent chain. Read-outs that look alike come from different tables or passages of the source.

What was measured:
[1] = test system: mice with diet-induced obesity; conditions: cited from earlier work
[2] = target: T1, human NNMT (Homo sapiens, UniProt P40261); test: Fluorescence-based NNMT enzymatic assay (human enzyme); format: biochemical; conditions: for IC50: read-out: hNNMT IC50
T1 sequence (P40261 1-264): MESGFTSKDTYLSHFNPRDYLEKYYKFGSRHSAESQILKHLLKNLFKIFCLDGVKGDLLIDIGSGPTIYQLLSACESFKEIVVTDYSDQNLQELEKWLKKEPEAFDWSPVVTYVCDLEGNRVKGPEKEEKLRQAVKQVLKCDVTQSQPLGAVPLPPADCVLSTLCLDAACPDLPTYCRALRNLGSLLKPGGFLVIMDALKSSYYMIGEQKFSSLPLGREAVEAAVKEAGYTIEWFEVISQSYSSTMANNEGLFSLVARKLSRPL
Experimental: (§1) Experimental Procedures S2: Fluorescence-based NNMT enzymatic assay
(§2) NNMT activity was measured by fluorescence based assay. The product MNA formed in the reaction reacts with acetophenone in the presence of KOH and formic acid and forms a fluorescent product 2, 7- naphthyridine. The fluorescence intensity measured with excitation at 375nm and emission at 430nm. Inhibitors were screened using human, mouse and monkey NNMT enzymes. Different concentrations of inhibitors were pre-incubated along with 5ng/well of human NNMT enzyme and 3.42ng/well of mouse NNMT enzyme for 30 minutes at room temperature. Reaction was initiated by addition of SAM and nicotinamide mixture (7µM, 20µM, 8µM SAM and 6µM, 20µM, 9µM nicotinamide for human, mouse and monkey NNMT assays respectively) and incubated for 60 minutes at 37°C. The final assay reaction mixture contained a buffer of 100mM Tris Hcl pH 7.5, 0.04% BSA, 2mM Dithiothreitol and 1% DMSO. The reaction was terminated by addition of Ethanol: Acetophenone mix (75% ethanol: 25% Acetophenone) and 5M potassium Hydroxide prepared with 50% Ethanol. The reaction was incubated for 15 minutes followed by addition of 100µl of 60% formic acid and further incubation for 60 minutes at room temperature. A fluorescent product 2, 7- naphthyridine was measured in a Tecan reader with excitation at 375nm and emission at 430nm. The IC50 values were determined by fitting the inhibition curves (percent inhibition versus inhibitor concentration) using a four parametric sigmoidal dose response in graph pad prism. […]

[3] = target: T2, mouse NNMT (Mus musculus, UniProt O55239); test: Fluorescence-based NNMT enzymatic assay (mouse enzyme); format: biochemical; conditions: for IC50: read-out: mNNMT IC50
T2 sequence (O55239 1-264): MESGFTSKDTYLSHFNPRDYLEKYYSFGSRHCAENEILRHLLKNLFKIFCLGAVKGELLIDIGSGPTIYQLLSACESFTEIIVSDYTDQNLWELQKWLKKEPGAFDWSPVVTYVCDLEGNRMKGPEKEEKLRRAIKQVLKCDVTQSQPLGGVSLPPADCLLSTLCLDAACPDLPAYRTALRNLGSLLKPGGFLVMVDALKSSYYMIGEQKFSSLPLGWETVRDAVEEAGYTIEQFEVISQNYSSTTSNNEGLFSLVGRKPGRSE
Experimental: as §1, §2

[4] = target: T3, human NNMT (Homo sapiens, UniProt P40261, E101A/E103A/K100A); test: Thermal shift (DSF) measurement of NNMT stabilisation; format: binding; conditions: together with cofactor (reaction product) SAH
T3 construct: His-tag; thrombin protease site; made in house
T3 sequence (P40261 1-264 K100A/E101A/E103A): T1 sequence (P40261 1-264) with K100A, E101A, E103A

[5] = target: CYP3A4 (Homo sapiens, UniProt P08684); test: CYP3A4 inhibition; format: in vitro ADME
[6] = Metabolic stability in liver microsomes (species not specified); format: in vitro ADME
Experimental: (§3) Experimental Procedures S3: Metabolic stability in human and mouse liver microsomes
(§4) These profiling studies were carried out as described in Mullangi R. et. al. Preclinical assessment of
(§5) ulixertinib, a novel ERK1/2 inhibitor, ADMET & DMPK, 2017, 212-223;

[7] = Metabolic stability in human liver microsomes; format: in vitro ADME; design: HLM: unit not given beside the values; conditions: for remaining at 1 h: human liver microsomes, read-out: HLM % Remaining at 1 h; for HLM: Table 3, human liver microsome data, head HLM/MLM without unit
Experimental: as §3, §4, §5

[8] = Metabolic stability in rat liver microsomes; format: in vitro ADME; conditions: read-out: RLM % Remaining at 1 h
[9] = Metabolic stability in mouse liver microsomes; format: in vitro ADME; conditions: for remaining at 1 h: mouse liver microsomes, read-out: MLM % Remaining at 1 h; for MLM: Table 3, mouse liver microsome data, head HLM/MLM without unit
Experimental: as §3, §4, §5

[10] = test system: NNMT; conditions: substrate of NNMT; cited from earlier work

Chain of CYP3A4 (P08684 whole entry, species assumed): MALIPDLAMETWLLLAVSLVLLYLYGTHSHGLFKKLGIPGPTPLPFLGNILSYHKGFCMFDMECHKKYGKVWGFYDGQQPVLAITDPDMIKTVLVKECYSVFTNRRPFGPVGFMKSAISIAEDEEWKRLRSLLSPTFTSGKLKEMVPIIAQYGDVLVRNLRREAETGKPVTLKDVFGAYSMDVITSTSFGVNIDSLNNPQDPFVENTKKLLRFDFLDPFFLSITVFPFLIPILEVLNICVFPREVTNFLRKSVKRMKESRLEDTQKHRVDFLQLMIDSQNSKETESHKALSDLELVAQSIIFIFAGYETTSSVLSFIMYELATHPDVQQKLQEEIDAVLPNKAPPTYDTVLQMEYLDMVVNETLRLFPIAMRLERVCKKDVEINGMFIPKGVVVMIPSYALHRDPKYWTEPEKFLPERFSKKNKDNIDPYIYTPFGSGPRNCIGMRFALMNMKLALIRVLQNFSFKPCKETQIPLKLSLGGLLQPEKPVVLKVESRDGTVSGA

Compound | IC50 [2] | IC50 [3] | remaining at 1 h [7] | remaining at 1 h [8] | remaining at 1 h [9] | also measured
5-amino-1-methylquinoline |  |  |  |  |  | body weight [1]: reduced body weight; glucose tolerance [1]: improved glucose tolerance; insulin sensitivity [1]: higher insulin sensitivity
COc1ccc(C(N)=O)cn1 [6-methoxynicotinamide] |  |  |  |  |  | body weight [1]: reduced body weight; glucose tolerance [1]: improved glucose tolerance; insulin sensitivity [1]: higher insulin sensitivity
N=c1sc2cccc3c2n1CCC3 [Compound 2] | 1300 nM | 2300 nM |  |  |  | mode of inhibition ([2]; competition with substrates nicotinamide / SAM): competitive inhibitors either of nicotinamide alone; stabilization in DSF experiments, in words [4]: strong additive stabilization
CN1Cc2cccc3c2N(CCC3)C1=N [Compound 4] | 70 nM | 100 nM |  |  |  | hNNMT potency, in words [2]: two-digit nano-molar potency; CYP3A4 inhibition liabilities [5]: no CYP3A4 inhibition liabilities were detected; metabolic stability, in words [6]: in an acceptable range
Cc1nn(CC(C)(O)C(=O)N2CCN(c3ccc4cnccc4c3)CC2)cc1-c1cccc(F)c1 (centres unmarked) [Compound 8] | > 10000 nM |  | < 5% | < 5% | < 5% | hNNMT potency, in words [2]: completely lost hNNMT activity
Cc1nn(CC(C)(O)C(=O)N2CCN(c3cccc4cnncc34)CC2)cc1-c1cccc(F)c1 (centres unmarked) [Compound 15] | 790 nM | 5100 nM | < 5% | < 5% | < 5% | 
Cc1nn(CC(C)(O)C(=O)N2CCN(c3cccc4cncnc34)CC2)cc1-c1cccc(F)c1 (centres unmarked) [Compound 16] | 1100 nM | 1630 nM | < 5% | < 5% | < 5% | 
Cc1nn(CC(C)(O)C(=O)N2CCN(c3cnc4cnccn34)CC2)cc1-c1cccc(F)c1 (centres unmarked) [Compound 17] | > 3000 nM |  | 27% | < 5% | 8% | 
Cc1nn(CC(C)(O)C(=O)N2CCC(c3cccc4[nH]c(=O)ccc34)CC2)cc1-c1cccc(F)c1 (centres unmarked) [Compound 25] |  |  |  |  |  | IC50 ([2]; Table 3): 750 nM; IC50 ([3]; Table 3): > 3000 nM; reduction in mNNMT potency ([3]; compared to (21)): two-fold reduction; HLM [7]: 17; MLM [9]: < 5
Cc1nn(CC(C)(O)C(=O)N2CCC(O)(c3cccc4cnccc34)CC2)cc1-c1cccc(F)c1 (centres unmarked) [Compound 31] |  |  |  |  |  | IC50 ([2]; Table 3): 110 nM; increase in potency ([2]; comparator not stated): three-fold increase; IC50 ([3]; Table 3): 560 nM; HLM [7]: 23; MLM [9]: < 5; metabolic stability, in words [6]: insufficient for further profiling
C[S+](CC[C@H](N)C(=O)[O-])C[C@H]1O[C@@H](n2cnc3c(N)ncnc32)[C@H](O)[C@@H]1O (some centres unmarked) [SAM, S-adenosyl-methionine] |  |  |  |  |  | Km [10]: 1.8 µM
NC(=O)c1cccnc1 [nicotinamide] |  |  |  |  |  | Km [10]: 400 µM

Now from value to compound, other results behind:

IC50 [2] | IC50 [3] | remaining at 1 h [7] | remaining at 1 h [8] | remaining at 1 h [9] | Compound | also measured
> 30000 nM |  | 35% | < 5% | 30% | Cc1nn(CC(C)(O)C(=O)N2CCN(c3ccc4c(cnn4Cc4ccccc4)c3)CC2)cc1-c1cccc(F)c1 (centres unmarked) [Compound 18] | 
250 nM | 1640 nM | 20% | < 5% | < 5% | Cc1nn(CC(C)(O)C(=O)N2CCN(c3cccc4[nH]c(=O)ccc34)CC2)cc1-c1cccc(F)c1 (centres unmarked) [Compound 21] | hNNMT potency, in words [2]: reasonable potency; metabolic stability, in words [6]: did not improve
> 30000 nM |  | 16% | 31% | < 5% | Cc1nn(CC(C)(O)C(=O)N2CCN(c3cccc4c(=O)[nH]ccc34)CC2)cc1-c1cccc(F)c1 (centres unmarked) [Compound 22] | hNNMT potency, in words [2]: not active
150 nM | 1000 nM | < 5% |  | < 5% | Cc1nn(CC(C)(O)C(=O)N2CCN(c3cccc4c3ccc(=O)n4C)CC2)cc1-c1cccc(F)c1 (centres unmarked) [Compound 23] | metabolic stability, in words [6]: did not improve
